Source: ChEMBL document CHEMBL4422686, “Optimization of an azetidine series as inhibitors of colony stimulating factor-1 receptor (CSF-1R) Type II to lead to the clinical candidate JTE-952” (Bioorg Med Chem Lett, 2019)

Experiments:
Conditions in all cases: in vivo
[1] = Cmax in Sprague-Dawley rat at 3 mg/kg, po by LC-MS/MS analysis; format: ADME, organism-based; design: dose 3 mg/kg, route oral
[2] = AUC in Sprague-Dawley rat at 3 mg/kg, po by LC-MS/MS analysis; format: ADME, organism-based
[3] = Oral bioavailability in Sprague-Dawley rat at 3 mg/kg by LC-MS/MS analysis; format: ADME, organism-based
[4] = Volume of distribution in Sprague-Dawley rat at 1 mg/kg, iv by LC-MS/MS analysis; format: ADME, organism-based
[5] = Mean residence time in Sprague-Dawley rat at 1 mg/kg, iv by LC-MS/MS analysis; format: ADME, organism-based
[6] = Volume of distribution in cynomolgus monkey at 1 mg/kg, iv by LC-MS/MS analysis; format: ADME, organism-based, Macaca fascicularis
[7] = Mean residence time in cynomolgus monkey at 1 mg/kg, iv by LC-MS/MS analysis; format: ADME, organism-based, Macaca fascicularis

Row | Compound | Cmax [1] | AUC [2] | bioavailability [3] | Vd [4] | MRT [5] | Vd [6] | MRT [7]
1 | COc1cc(C2CN(C(=O)c3cc(COCC(CO)(CO)CO)ccn3)C2)ccc1OCc1ccc(C2CC2)cc1 | 270 nM | 1.63 µM·h | 116% | 3.46 L/kg | 0.91 h | 0.56 L/kg | 1.2 h
2 | COc1cc(C2CN(C(=O)c3cc(COC[C@@H](O)CO)ccn3)C2)ccc1OCc1ccc(C2CC2)cc1 | 490 nM | 2.22 µM·h | 85.1% | 3.27 L/kg | 1.46 h | 5 L/kg | 7.5 h
3 | COc1cc(C2CN(C(=O)c3cc(OC[C@H](O)CO)ccn3)C2)ccc1OCc1ccc(C2CC2)cc1 | 740 nM | 4.15 µM·h | 75.8% | 1.51 L/kg | 1.37 h | 0.76 L/kg | 0.28 h
